The text below walks through data of ChEMBL document CHEMBL5512659, “Structure optimizing of flavonoids against both MRSA and VRE” (Eur J Med Chem, 2024).

Calls of active or inactive are those of the source. No cut-off for these calls is given here.

Data set [1] relates to Enterococcus faecalis. Put plainly: Synergistic antibacterial activity against multidrug resistant Enterococcus faecalis ATCC 51299 assessed as fractional inhibitory concentration in presence of ampicillin. The format is functional.
In data set [2] the test system is Staphylococcus aureus. Put plainly: Additive antibacterial activity against methicillin resistant Staphylococcus aureus clinical isolate 003 assessed as fractional inhibitory concentration in presence of chloramphenicol. The format is functional.
The subject of data set [3] is Staphylococcus aureus. Put plainly: Antibacterial activity against methicillin resistant Staphylococcus aureus clinical isolate 003 in presence of 1 mM/L Mg2+ (reference value: 0.25 ug/ml). The format is functional.
Data set [4] has as its system Enterococcus faecalis. Put plainly: Antibacterial activity against multidrug resistant Enterococcus faecalis ATCC 51299 infected in cyclophosphamide immunosuppressed mouse model of abdominal infection assessed as reduction in cell degeneration at 1.25 to 5 mg/kg measured after 60 hrs by H and E staining based analysis. The note with it: dose 1.25-5 mg/kg. Type of data set: functional, organism-based.

The nature of data set [5]: Cytotoxicity against human L02 cells assessed as cell viability at 64 ug/ml measured after 48 hrs relative to control. Type of data set: toxicity, cell-based. The note with it: at 64 µg/mL, read-out: Activity.
For data set [6], the system named is Enterococcus faecalis. Put plainly: Synergistic antibacterial activity against multidrug resistant Enterococcus faecalis ATCC 51299 assessed as fractional inhibitory concentration in presence of adriamycin hydrochloride. The format is functional.
The subject of data set [7] is Staphylococcus aureus. Put plainly: Additive antibacterial activity against methicillin resistant Staphylococcus aureus clinical isolate 003 assessed as fractional inhibitory concentration in presence of azithromycin. Type of data set: functional.
Data set [8] relates to Enterococcus faecalis. As to the kind of experiment: Antibacterial activity against multidrug resistant Enterococcus faecalis ATCC 51299 infected in cyclophosphamide immunosuppressed mouse model of abdominal infection assessed as reduction in inflammatory infiltration at 1.25 to 5 mg/kg measured after 60 hrs by H and E staining based analysis. The format is functional, organism-based. The note with it: dose 1.25-5 mg/kg.

In data set [9] the test system is Staphylococcus aureus. As to the kind of experiment: Antibacterial activity against methicillin resistant Staphylococcus aureus clinical isolate 003 infected in cyclophosphamide immunosuppressed mouse model of skin wound infection assessed as increase in wound healing by measuring increase in VEGF expression at 1.25 to 5 mg/kg administered for 7 days and measured on day 8 by immunohistochemical analysis. Type of data set: functional, organism-based. The note with it: dose 1.25-5 mg/kg, time 8.0 day.

In data set [10] the test system is Staphylococcus aureus. Put plainly: Synergistic antibacterial activity against methicillin resistant Staphylococcus aureus clinical isolate 003 assessed as fractional inhibitory concentration in presence of lincomycin hydrochloride. Type of data set: functional.
Data set [11] has as its system Enterococcus faecalis. Put plainly: Synergistic antibacterial activity against multidrug resistant Enterococcus faecalis ATCC 51299 assessed as fractional inhibitory concentration in presence of vancomycin. The format is functional.
Data set [12] has as its system Staphylococcus aureus. As to the kind of experiment: Synergistic antibacterial activity against methicillin resistant Staphylococcus aureus clinical isolate 003 assessed as fractional inhibitory concentration in presence of tetracycline. The format is functional.
For data set [13], the system named is Staphylococcus aureus. Put plainly: Antibacterial activity against methicillin resistant Staphylococcus aureus clinical isolate 003 infected in cyclophosphamide immunosuppressed mouse model of skin wound infection assessed as reduction in bacterial load in wound at 1.25 mg/kg administered for 7 days and measured on day 8 (reference value: 1.6 x 10^8 CFU). The format is functional. The note with it: time 8 day.

Data set [14] has as its system Staphylococcus aureus. As to the kind of experiment: Antibacterial activity against methicillin resistant Staphylococcus aureus clinical isolate 003 infected in cyclophosphamide immunosuppressed mouse model of skin wound infection assessed as reduction in bacterial load in wound at 5 mg/kg administered for 7 days and measured on day 8 (reference value: 1.6 x 10^8 CFU). Type of data set: functional. The note with it: time 8 day.

Data set [15] has as its system Staphylococcus aureus. As to the kind of experiment: Antibacterial activity against methicillin resistant Staphylococcus aureus clinical isolate 003 infected in cyclophosphamide immunosuppressed mouse model of skin wound infection assessed as wound healing by measuring wound area at 5 mg/kg administered for 7 days and measured on day 8 (reference value: 32.1 […]). Type of data set: functional. The note with it: time 8 day.

Data set [16] relates to Enterococcus faecalis. As to the kind of experiment: Antibacterial activity against multidrug resistant Enterococcus faecalis ATCC 51299 infected in cyclophosphamide immunosuppressed mouse model of abdominal infection assessed as eradication of bacterial colonies in ascites at 1.25 to 5 mg/kg measured after 60 hrs relative to control. The format is functional. The note with it: dose 1.25-5 mg/kg.

A short description of data set [17]: Cytotoxicity against HEK293T cells assessed as cell viability at 64 ug/ml measured after 48 hrs relative to control. Type of data set: toxicity, cell-based, HEK-293T. The note with it: human, at 64 µg/mL, read-out: Activity.
The subject of data set [18] is Enterococcus faecalis. As to the kind of experiment: Synergistic antibacterial activity against multidrug resistant Enterococcus faecalis ATCC 51299 assessed as fractional inhibitory concentration in presence of tetracycline. Type of data set: functional.
The test system of data set [19] is Staphylococcus aureus. As to the kind of experiment: Antibacterial activity against methicillin resistant Staphylococcus aureus clinical isolate 003 infected in cyclophosphamide immunosuppressed mouse model of skin wound infection assessed as reduction in bacterial load in wound at 2.5 mg/kg administered for 7 days and measured on day 8 (reference value: 1.6 x 10^8 CFU). The note with it: time 8 day. The format is functional.

Data set [20] concerns Staphylococcus aureus. Put plainly: Antibacterial activity against methicillin resistant Staphylococcus aureus clinical isolate 003 in presence of 4.5 mM/L K+ (reference value: 0.25 ug/ml). The format is functional.
In data set [21] the test system is Staphylococcus aureus. As to the kind of experiment: Synergistic antibacterial activity against methicillin resistant Staphylococcus aureus clinical isolate 003 assessed as fractional inhibitory concentration in presence of norfloxacin. The format is functional.
Data set [22] concerns Staphylococcus aureus. Put plainly: Antibacterial activity against methicillin resistant Staphylococcus aureus clinical isolate 003 in presence of 140 mM/L Na+ (reference value: 1 ug/ml). Type of data set: functional.
In data set [23] the test system is Staphylococcus aureus. Put plainly: Antibacterial activity against methicillin resistant Staphylococcus aureus clinical isolate 003 in presence of 4.5 mM/L K+ (reference value: 1 ug/ml). The format is functional.
Data set [24] relates to Staphylococcus aureus. Put plainly: Antibacterial activity against methicillin resistant Staphylococcus aureus clinical isolate 003 in presence of 1 mM/L Mg2+ (reference value: 1 ug/ml). The format is functional.
The subject of data set [25] is Staphylococcus aureus. Put plainly: Antibacterial activity against methicillin resistant Staphylococcus aureus clinical isolate 003 in presence of 2.5 mM/L Ca2+ (reference value: 1 ug/ml). The format is functional.
Data set [26] has as its system Enterococcus faecalis. As to the kind of experiment: Antibacterial activity against multidrug resistant Enterococcus faecalis ATCC 51299 in presence of 2.5 mM/L Ca+ (reference value: 32 ug/ml). The format is functional.
Data set [27] deals with Staphylococcus aureus. As to the kind of experiment: Antibacterial activity against methicillin resistant Staphylococcus aureus clinical isolate 003 in presence of 4.5 mM/L K+ (reference value: 0.5 ug/ml). Type of data set: functional.
Data set [28] has as its system Staphylococcus aureus. Put plainly: Antibacterial activity against methicillin resistant Staphylococcus aureus clinical isolate 003 in presence of 140 mM/L Na+ (reference value: 0.5 ug/ml). The format is functional.
Data set [29] concerns Staphylococcus aureus. As to the kind of experiment: Antibacterial activity against methicillin resistant Staphylococcus aureus clinical isolate 003 in presence of 2.5 mM/L Ca2+ (reference value: 0.5 ug/ml). The format is functional.

For the compound `CCCCCCc1c(-c2ccc(OCCCCNCCCN)cc2OCCCCNCCCN)oc2cc(OC)cc(O)c2c1=O`, the “fractional inhibitory concentration index (FICI)” value with Enterococcus faecalis [1] amounted to 0.375; in the data set with Staphylococcus aureus [2] it was 1; with Enterococcus faecalis [6], 0.5; with Staphylococcus aureus [7], 0.75; in the data set with Staphylococcus aureus [10], 0.313; in the data set on Enterococcus faecalis [11], 0.375. Also, the “fractional inhibitory concentration index (FICI)” value in the data set on Staphylococcus aureus [12] came to 0.375; in the data set on Enterococcus faecalis [18], 0.25; in the data set with Staphylococcus aureus [21] it was 0.5. For the same compound, the MIC came out at 0.25 µg/mL in the data set with Staphylococcus aureus [3] and 0.125 µg/mL in the data set with Staphylococcus aureus [20]. Besides, the outcome in the data set with Enterococcus faecalis [4], in the data set on Enterococcus faecalis [8] and in the data set on Staphylococcus aureus [9] was Active. Besides, the viability at 48 h, 64 ug/ml in data set [5] and in data set [17] was above 50% throughout. Further, the Activity in the data set on Staphylococcus aureus [13] was 9.2 10^6CFU; in the data set on Staphylococcus aureus [14] it was 9.4 10^6CFU; with Staphylococcus aureus [15], 2.1 mm²; in the data set on Enterococcus faecalis [16], 92.2%; with Staphylococcus aureus [19], 8 10^6CFU.

Turning to `CCCCCCc1c(-c2ccc(OCC(=O)CN[C@H](CCCNC(=N)N)C(=O)OC)cc2OCC(=O)CN[C@H](CCCNC(=N)N)C(=O)OC)oc2cc(OC)cc(O)c2c1=O`, the minimal inhibitory concentration (MIC) in the data set on Staphylococcus aureus [22] was determined as 1 µg/mL; in the data set with Staphylococcus aureus [23], 2 µg/mL; with Staphylococcus aureus [24] it was 1 µg/mL; with Staphylococcus aureus [25], 1 µg/mL; with Enterococcus faecalis [26] it was 32 µg/mL.

As to `CCCCCCc1c(-c2ccc(OCCCCN(C)C)cc2OCCCCN(C)C)oc2cc(OC)cc(O)c2c1=O`, the values for the MIC with Staphylococcus aureus [27], in the data set on Staphylococcus aureus [28] and in the data set with Staphylococcus aureus [29] were 0.5 µg/mL, 1 µg/mL and 1 µg/mL, respectively.

By MIC is commonly meant the lowest concentration found to suppress growth.
